# In US20260207614A1, “IRAK4 DEGRADERS AND USES THEREOF” (Kymera Therapeutics, Inc., priority 2022, published 2026):
# Entries after “also recorded” stand apart in the source; their conditions may differ. Read-outs that look alike come from different tables or passages of the source.
# What was measured:
# [1] = In vivo PK studies in rats, dogs and monkeys
# Description: (§1) In in vivo pharmacokinetic (PK) studies conducted in rats, dogs, and monkeys.
# [2] = Phase 1 MAD plasma PK in healthy volunteers; type: in vivo, human; conditions: for Ctrough / AUC: Day 14, geometric mean (% CV); for AUC: read-out: AUC24; for Tmax: Day 14, median (range); for Cmax: Day 14 steady state, geometric mean (% CV)
# Description: The selection of Compound A doses will be guided by the safety, tolerability, and PK data in humans from the SAD portion of the study. […] Increasing dose levels in subsequent MAD cohorts will be identified based on the safety and PK observed in the previous SAD and MAD cohorts. Dose escalation between each MAD cohort will not exceed 100%.
# However, the dosing interval and the duration of dosing may change following review of the safety, PK, and PD data from Part A.
# A MAD5 cohort was added including five twice-weekly doses of 200 mg.
# Geometric Mean (% CV) reported for all parameters, except tmax where median (range) are presented. Accumulation Ratio represents fold change in exposure from Day 1 to Day 14.
# IRAK4 [3] = assay: In vitro IRAK4 degradation, monkey PBMCs; type: cell-based
# IRAK4 [4] = molecular target: T1, IRAK4 (Rattus norvegicus, UniProt A0A8I6G1H3); assay: In vitro IRAK4 degradation, rat splenocytes; type: cell-based; conditions: read-out: DC50 (IRAK4 degradation)
# T1 construct: endogenous in cells; host or cells: rat splenocytes
# P-glycoprotein (P-gp) = P-glycoprotein (P-gp) (Homo sapiens, UniProt P08183); assay: P-gp substrate assessment in vitro; type: in vitro ADME
# Description: as §1
# (§2) Metabolites generated in liver microsomes from humans were also detected in those from rat, dog, and monkey. In the in vitro drug-drug interaction studies.
# [5] = system: MSU-crystal induced (TLR 2/4-dependent) inflammation; assay: Mouse air pouch model of MSU-crystal induced inflammation; type: in vivo
# Description: (§3) Overall, efficacy was associated with achieving at least 80% or more IRAK4 knockdown in associated tissues in the model systems.
# [6] = Phase 1 SAD safety and tolerability; type: in vivo, human
# Description: Part A: Part A is a double-blind, randomized, placebo-controlled, SAD, sequential group study in 56 adult HVs, divided in 7 cohorts of eight HVs each. Seven ascending single doses (1 dose level per cohort) will be investigated. One or more additional cohorts may be added, as needed.
# • Treatment-emergent (serious) adverse events ([S]AEs) • Concomitant medication • Clinical laboratory tests • Hematology • Coagulation • Chemistry • Urinalysis and urine microscopy • Vital signs • Pulse Rate (bpm) • Systolic blood pressure (BP) (mm Hg) • Diastolic BP (mm Hg) • Respiratory rate • Temperature • Safety electrocardiogram and Holter monitoring • Heart Rate (bpm). PR, QRS, QT, QTcF
# All data will be fully listed.
# [7] = system: proinflammatory gene transcripts; assay: Phase 1 Part C proinflammatory gene transcripts in skin lesions (RNAseq); type: in vivo, human; conditions: Day 28 compared to baseline
# Permeability = type: in vitro ADME
# Description: as §1
# (§4) Compound A can be classified tentatively as a BCS II compound.
# Solubility = type: physicochemical
# Description: as §4
# [8] = system: imiquimod psoriasis model (TLR 7/8-dependent); assay: Imiquimod psoriasis model; type: in vivo, murine
# Description: as §3
# CYP2C19 = CYP2C19 (Homo sapiens, UniProt P33261); assay: In vitro drug-drug interaction study, CYP2C19; type: in vitro ADME
# Description: as §2
# [9] = Excretion study in bile duct-cannulated (BDC) rats; type: in vivo
# [10] = system: LPS (TLR4)-stimulated cytokine induction in whole blood; assay: Phase 1 SAD ex vivo LPS-stimulated cytokine induction in whole blood; set-up: species or system human; conditions: 24-48 hours, Cohort 7
# [11] = 30 to 100 mg/kg twice daily, 3 days
# [12] = blinded SAD, study treatment related, per Investigator
# T1 sequence (A0A8I6G1H3 1-461): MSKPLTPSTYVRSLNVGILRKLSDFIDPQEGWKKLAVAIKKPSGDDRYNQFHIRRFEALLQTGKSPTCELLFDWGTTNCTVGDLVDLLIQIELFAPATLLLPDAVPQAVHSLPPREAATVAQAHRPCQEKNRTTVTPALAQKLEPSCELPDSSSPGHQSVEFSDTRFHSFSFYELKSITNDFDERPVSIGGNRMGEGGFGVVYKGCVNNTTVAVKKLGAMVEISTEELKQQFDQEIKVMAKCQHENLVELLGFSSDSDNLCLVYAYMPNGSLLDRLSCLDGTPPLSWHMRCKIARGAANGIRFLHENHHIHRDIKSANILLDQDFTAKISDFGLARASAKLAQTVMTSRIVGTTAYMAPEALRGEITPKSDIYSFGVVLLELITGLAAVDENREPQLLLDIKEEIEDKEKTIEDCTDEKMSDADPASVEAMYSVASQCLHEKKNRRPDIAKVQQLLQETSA
# CYP2C19, sequence (P33261 whole entry): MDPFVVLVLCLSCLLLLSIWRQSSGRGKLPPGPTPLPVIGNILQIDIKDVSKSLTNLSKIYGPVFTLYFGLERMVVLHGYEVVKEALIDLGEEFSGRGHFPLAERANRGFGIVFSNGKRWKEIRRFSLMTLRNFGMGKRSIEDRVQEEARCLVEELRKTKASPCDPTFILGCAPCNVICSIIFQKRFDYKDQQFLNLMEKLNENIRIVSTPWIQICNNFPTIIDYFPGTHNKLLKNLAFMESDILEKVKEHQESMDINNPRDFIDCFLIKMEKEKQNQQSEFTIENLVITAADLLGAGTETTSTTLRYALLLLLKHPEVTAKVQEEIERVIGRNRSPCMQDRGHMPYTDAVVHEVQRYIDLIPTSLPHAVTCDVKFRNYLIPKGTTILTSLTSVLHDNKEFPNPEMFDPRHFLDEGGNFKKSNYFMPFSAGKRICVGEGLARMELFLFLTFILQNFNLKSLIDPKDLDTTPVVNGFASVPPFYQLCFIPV
# P-glycoprotein (P-gp), sequence (P08183 whole entry): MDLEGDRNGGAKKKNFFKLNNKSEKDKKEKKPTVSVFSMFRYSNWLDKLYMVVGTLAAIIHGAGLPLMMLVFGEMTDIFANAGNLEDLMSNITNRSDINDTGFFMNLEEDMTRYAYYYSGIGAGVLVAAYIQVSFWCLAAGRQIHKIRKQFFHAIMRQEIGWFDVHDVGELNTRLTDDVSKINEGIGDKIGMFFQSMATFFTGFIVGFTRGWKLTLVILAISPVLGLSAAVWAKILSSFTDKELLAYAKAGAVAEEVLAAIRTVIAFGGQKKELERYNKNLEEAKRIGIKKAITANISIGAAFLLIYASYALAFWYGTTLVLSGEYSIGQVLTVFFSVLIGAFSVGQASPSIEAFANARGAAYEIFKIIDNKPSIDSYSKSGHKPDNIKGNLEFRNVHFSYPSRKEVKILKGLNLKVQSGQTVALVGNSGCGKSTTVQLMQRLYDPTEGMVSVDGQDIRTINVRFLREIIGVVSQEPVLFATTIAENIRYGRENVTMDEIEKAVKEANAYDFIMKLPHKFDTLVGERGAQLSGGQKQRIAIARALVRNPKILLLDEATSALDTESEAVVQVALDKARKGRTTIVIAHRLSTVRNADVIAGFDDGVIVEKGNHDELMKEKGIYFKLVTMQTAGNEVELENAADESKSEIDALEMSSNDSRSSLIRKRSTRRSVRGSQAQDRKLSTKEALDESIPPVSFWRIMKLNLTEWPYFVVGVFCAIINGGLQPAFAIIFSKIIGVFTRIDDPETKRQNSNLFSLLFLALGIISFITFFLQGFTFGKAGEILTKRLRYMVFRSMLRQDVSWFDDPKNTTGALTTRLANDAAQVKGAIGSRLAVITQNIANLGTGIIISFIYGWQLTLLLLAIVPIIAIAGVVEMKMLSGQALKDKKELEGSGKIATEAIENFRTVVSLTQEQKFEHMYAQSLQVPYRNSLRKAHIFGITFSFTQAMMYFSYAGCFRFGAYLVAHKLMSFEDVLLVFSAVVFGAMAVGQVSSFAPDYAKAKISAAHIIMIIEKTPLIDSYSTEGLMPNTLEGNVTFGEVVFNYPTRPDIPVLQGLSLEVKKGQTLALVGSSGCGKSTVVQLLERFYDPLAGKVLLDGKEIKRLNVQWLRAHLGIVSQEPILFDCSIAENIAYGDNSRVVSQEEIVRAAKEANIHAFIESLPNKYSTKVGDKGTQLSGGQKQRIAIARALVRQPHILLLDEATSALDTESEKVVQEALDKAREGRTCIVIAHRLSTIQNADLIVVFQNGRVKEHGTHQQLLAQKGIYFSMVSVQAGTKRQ
structure (smiles),measurement,setting,value
"Cn1c(=O)n([C@@H]2CCC(=O)NC2=O)c2cccc(C#CCOC3CCN(C[C@H]4CC[C@H](n5cc(NC(=O)c6cnn7ccc(N8C[C@H]9C[C@@H]8CO9)nc67)c(C(F)F)n5)CC4)CC3)c21 [Compound A, 5-((1R,4R)-2-oxa-5-azabicyclo[2.2.1]heptan-5-yl)-N-(3-(difluoromethyl)-1-((1r,4R)-4-((4-((3-(1-(2,6-dioxopiperidin-3-yl)-3-methyl-2-oxo-2,3-dihydro-1H-benzo[d]imidazol-4-yl)prop-2-yn-1-yl)oxy)piperidin-1-yl)methyl)cyclohexyl)-1H-pyrazol-4-yl)pyrazolo[1,5-a]pyrimidine-3-carboxamide]",bioavailability,[1],low to moderate
same,clearance,[1],moderate to high
same,terminal half-life,[1],moderate
same,volume of distribution at steady state,[1],high
same,Ctrough,[2]; 25 mg QD,5.03 (30.3) ng/mL
same,Ctrough,[2]; 50 mg QD,7.28 (35.1) ng/mL
same,Ctrough,[2]; 100 mg QD,9.81 (30.1) ng/mL
same,Ctrough,[2]; 200 mg QD,18.8 (32.6) ng/mL
same,day of dosing by which steady-state plasma levels reached,"[2]; MAD, once daily",≤ 7 days
same,AUC,"[2]; human, plasma, oral, 25 mg QD",153 ng·h/mL
same,Tmax,"[2]; human, plasma, oral, 25 mg QD",8 h
same,Cmax,"[2]; human, plasma, oral, 25 mg QD",8.2 ng/mL
same,AUC,"[2]; human, plasma, oral, 50 mg QD",224 ng·h/mL
same,Tmax,"[2]; human, plasma, oral, 50 mg QD",8 h
same,Cmax,"[2]; human, plasma, oral, 50 mg QD",12 ng/mL
same,AUC,"[2]; human, plasma, oral, 100 mg QD",314 ng·h/mL
same,Tmax,"[2]; human, plasma, oral, 100 mg QD",8 h
same,Cmax,"[2]; human, plasma, oral, 100 mg QD",16.1 ng/mL
same,AUC,"[2]; human, plasma, oral, 200 mg QD",498 ng·h/mL
same,Tmax,"[2]; human, plasma, oral, 200 mg QD",8 h
same,Cmax,"[2]; human, plasma, oral, 200 mg QD",25.2 ng/mL
same,half-life,"[2]; human, plasma, oral, healthy volunteers, read-out: half-life, range observed in MAD",34 to 59 h
same,DC50,IRAK4 [4],< 10 nM
same,substrate of P-glycoprotein (P-gp),P-glycoprotein (P-gp),substrate
same,IRAK4 levels in the spleen,[5]; [11],significantly reduced
same,"inflammatory exudate, including neutrophils and IL-1β",[5]; [11],significantly reduced
same,IRAK4 knockdown in associated tissues associated with efficacy,[5]; murine inflammation model systems overall,at least 80%
same,"Abdominal pain, Severity",[6]; Cohort SAD 5,Mild
same,"Diarrhea, Severity",[6]; Cohort SAD 5,Mild
same,"Headache, Severity",[6]; Cohort SAD 5,Mild (x2)
same,"Palpitations, Severity",[6]; Cohort SAD 5,Mild
same,"Headache, Severity","[6]; Cohort SAD 5, SAD 5 FE, SAD 6",Moderate (x3)
same,"Diarrhea, Severity",[6]; Cohort SAD 5 FE,Mild
same,"Nausea, Severity",[6]; Cohort SAD 5 FE,Mild
same,"Vomiting, Severity",[6]; Cohort SAD 5 FE,Mild (x2)
same,"Muscle weakness, Severity",[6]; Cohort SAD 6,Mild
same,"Myalgia, Severity",[6]; Cohort SAD 6,Mild
same,"Nausea, Severity",[6]; Cohort SAD 6,Mild (x2)
same,ECG changes,[6]; SAD,No significant ECG changes
same,QTcF prolongation,[6]; SAD,no clinically significant QTcF prolongation
same,serious adverse events,[6]; SAD,no serious adverse events; also recorded: No SAEs
same,AST elevation,"[6]; SAD 5, n=1, resolution ~Day 21",3.8 ×ULN
same,ALT elevation,"[6]; SAD 5, n=1, slow resolution to baseline",2.5 ×ULN
same,"Abdominal pain, #AEs (subjects)",[6]; [12],1
same,"Diarrhea, #AEs (subjects)",[6]; [12],2 (2)
same,"Headache, #AEs (subjects)",[6]; [12],5 (4)
same,"Muscle weakness, #AEs (subjects)",[6]; [12],1
same,"Myalgia, #AEs (subjects)",[6]; [12],1
same,"Nausea, #AEs (subjects)",[6]; [12],3 (3)
same,"Palpitations, #AEs (subjects)",[6]; [12],1
same,"Vomiting, #AEs (subjects)",[6]; [12],2 (1)
same,safety and tolerability,"[6]; single doses, healthy volunteers",safe and well-tolerated
same,"downregulation of proinflammatory gene transcripts in skin lesions (IL-5, IL-31, NLRP3, CXCL1, IL-2RB)",[7]; AD patients,> 25%
same,"downregulation of proinflammatory gene transcripts in skin lesions (IL-1b, IL-17, IL-36, IFN-g, IL-8, IL-5, GZMB, COX2)",[7]; HS patients,> 25%
same,permeability,Permeability,medium; also recorded: moderate
same,solubility,Solubility,low
same,solubility,"Solubility; FaSSIF, pH 6.5, fassif, read-out: solubility in bio-relevant fluid (FaSSIF)",< 12000 µg/mL
same,solubility,"Solubility; aqueous media, aqueous buffer, across the physiological pH range, read-out: aqueous solubility",≤ 3000 µg/mL
same,BCS classification,Solubility; tentative,BCS II
same,degradation of IRAK4 in the spleen and skin,"[8]; mouse, in vivo",dose-dependent degradation
same,skin thickness,"[8]; mouse, in vivo",reduction in skin thickness
same,IL-1β in the skin,[8]; p<0.0001,significant reduction
same,IL-6 in the skin,"[8]; p<0.05, 300 mg/kg only",significant reduction
same,time dependent inhibition (TDI) of CYP2C19,CYP2C19,potential time dependent inhibition (TDI)
same,biliary and intestinal excretion as parent drug,[9],minor to moderate
same,renal clearance,[9],negligible
same,Mean Maximum Percent Change from Baseline in ex vivo IFNγ induction,[10],−42%^
same,Mean Maximum Percent Change from Baseline in ex vivo IL1β induction,[10],−68%^1
same,Mean Maximum Percent Change from Baseline in ex vivo IL6 induction,[10],−62%^1
same,Mean Maximum Percent Change from Baseline in ex vivo IL8 induction,[10],−81%^1
same,Mean Maximum Percent Change from Baseline in ex vivo IL10 induction,[10],−83%^1
same,Mean Maximum Percent Change from Baseline in ex vivo IL12 induction,[10],−35%^2
same,Mean Maximum Percent Change from Baseline in ex vivo IL17 induction,[10],−43%^2
same,Mean Maximum Percent Change from Baseline in ex vivo TNFα induction,[10],−42%^2
